In US8685970B2, “Quinolines and related analogs as sirtuin modulators” (GlaxoSmithKline, LLC, priority 2008, dated 2014):

Target: T1, SIRT1 (Homo sapiens, UniProt Q96EB6)
T1 sequence (Q96EB6 1-747): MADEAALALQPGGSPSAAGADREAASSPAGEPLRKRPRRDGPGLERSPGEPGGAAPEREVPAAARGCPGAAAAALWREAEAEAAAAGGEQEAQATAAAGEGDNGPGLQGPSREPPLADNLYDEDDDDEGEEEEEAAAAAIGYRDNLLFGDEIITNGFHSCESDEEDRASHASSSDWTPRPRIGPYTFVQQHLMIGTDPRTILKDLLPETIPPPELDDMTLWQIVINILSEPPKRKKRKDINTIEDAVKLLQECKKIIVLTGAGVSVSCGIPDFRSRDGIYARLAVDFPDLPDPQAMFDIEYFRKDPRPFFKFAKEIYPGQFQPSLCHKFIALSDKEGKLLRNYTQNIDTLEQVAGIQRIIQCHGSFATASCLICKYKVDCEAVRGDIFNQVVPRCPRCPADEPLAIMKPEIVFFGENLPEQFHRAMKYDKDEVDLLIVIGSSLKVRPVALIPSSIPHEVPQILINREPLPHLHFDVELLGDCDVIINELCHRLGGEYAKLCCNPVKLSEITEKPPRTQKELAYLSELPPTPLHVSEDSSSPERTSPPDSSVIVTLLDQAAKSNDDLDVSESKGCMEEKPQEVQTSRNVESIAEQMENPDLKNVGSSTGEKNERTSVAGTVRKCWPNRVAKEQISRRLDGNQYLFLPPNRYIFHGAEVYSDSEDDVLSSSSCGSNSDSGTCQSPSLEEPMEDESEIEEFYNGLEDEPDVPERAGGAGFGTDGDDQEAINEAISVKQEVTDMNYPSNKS
Assay: Mass spectrometry based SIRT1 deacetylation assay (activation)
Assay type: biochemical
Conditions: 10 nM SIRT1, 0.5 μM peptide substrate, 120 μM βNAD+, 25 min at 25° C.
Text: A mass spectrometry based assay was used to identify modulators of SIRT1 activity. The mass spectrometry based assay utilizes a peptide having 20 amino acid residues as follows: Ac-EE-K (biotin)-GQSTSSHSK (Ac)N1eSTEG-K(5TMR)-EE-NH2 (SEQ ID NO: 1) wherein K(Ac) is an acetylated lysine residue and Nle is a norleucine. The peptide is labeled with the fluorophore 5TMR (excitation 540 nm/emission 580 nm) at the C-terminus. The sequence of the peptide substrate is based on p53 with several modifications. In addition, the methionine residue naturally present in the sequence was replaced with the norleucine because the methionine may be susceptible to oxidation during synthesis and purification.
The mass spectrometry assay is conducted as follows: 0.5 μM peptide substrate and 120 μM βNAD^+ is incubated with 10 nM SIRT1 for 25 minutes at 25° C. in a reaction buffer (50 mM Tris-acetate pH 8, 137 mM NaCl, 2.7 mM KCl, 1 mM MgCl2, 5 mM DTT, 0.05% BSA). Test compounds may be added to the reaction as described above. The SirT1 gene is cloned into a T7-promoter containing vector and transformed into BL21(DE3). After the 25 minute incubation with SIRT1, 10 μL of 10% formic acid is added to stop the reaction. Reactions are sealed and frozen for later mass spec analysis. Determination of the mass of the substrate peptide allows for precise determination of the degree of acetylation (i.e. starting material) as compared to deacetylated peptide (product).
A control for inhibition of sirtuin activity is conducted by adding 1 μL of 500 mM nicotinamide as a negative control at the start of the reaction (e.g., permits determination of maximum sirtuin inhibition). A control for activation of sirtuin activity is conducted using 10 nM of sirtuin protein, with 1 μL of DMSO in place of compound, to determine the amount of deacetylation of the substrate at a given timepoint within the linear range of the assay. This timepoint is the same as that used for test compounds and, within the linear range, the endpoint represents a change in velocity.
For the above assay, SIRT1 protein was expressed and purified as follows. The SirT1 gene was cloned into a T7-promoter containing vector and transformed into BL21(DE3). The protein was expressed by induction with 1 mM IPTG as an N-terminal His-tag fusion protein at 18° C. overnight and harvested at 30,000×g. Cells were lysed with lysozyme in lysis buffer (50 mM Tris-HCl, 2 mM Tris[2-carboxyethyl]phosphine (TCEP), 10 μM ZnCl2, 200 mM NaCl) and further treated with sonication for 10 min for complete lysis. The protein was purified over a Ni-NTA column (Amersham) and fractions containing pure protein were pooled, concentrated and run over a sizing column (Sephadex S200 26/60 global). The peak containing soluble protein was collected and run on an Ion-exchange column (MonoQ). Gradient elution (200 mM-500 mM NaCl) yielded pure protein. This protein was concentrated and dialyzed against dialysis buffer (20 mM Tris-HCl, 2 mM TCEP) overnight. The protein was aliquoted and frozen at −80° C. until further use.
Sirtuin modulating compounds that activated SIRT1 were identified using the assay described above and are shown below in Table 1. The EC1.5 values represent the concentration of test compounds that result in 150% activation of SIRT1. The EC1.5 values for the activating compounds are represented by A (EC1.5<1.0 uM), B (EC1.5 1-25 uM), C (EC1.5>25 uM). The percent maximum fold activation is represented by A (Fold activation >200%) or B (Fold Activation <200%). “NT” indicates the compound was not tested in a particular assay.

SMILES	EC1.5 (concentration of test compound that results in 150% activation of SIRT1)	% Fold Act. (percent maximum fold activation)
O=C(Nc1nc(-c2ccccc2)cs1)c1cccc2ccc(-c3cccc(C(F)(F)F)c3)nc12 [Compound 54]	C (EC1.5>25 uM)	–
O=C(Nc1nc2ccccc2s1)c1cccc2ccc(-c3cccc(C(F)(F)F)c3)nc12 [Compound 55]	A (EC1.5<1.0 uM)	A (Fold activation >200%)
O=C(Nc1ccc(Cl)cn1)c1cccc2ccc(-c3cccc(C(F)(F)F)c3)nc12 [Compound 56]	A (EC1.5<1.0 uM)	B (Fold Activation <200%)
O=C(Nc1cccnc1Cl)c1cccc2ccc(-c3cccc(C(F)(F)F)c3)nc12 [Compound 57]	B (EC1.5 1-25 uM)	B (Fold Activation <200%)
O=C(Nc1ccc(Cl)nc1)c1cccc2ccc(-c3cccc(C(F)(F)F)c3)nc12 [Compound 58]	A (EC1.5<1.0 uM)	B (Fold Activation <200%)
Cc1cc(NC(=O)c2cccc3ccc(-c4cccc(C(F)(F)F)c4)nc23)sn1 [Compound 59]	A (EC1.5<1.0 uM)	A (Fold activation >200%)
O=C(Nc1ccnc(Cl)c1)c1cccc2ccc(-c3cccc(C(F)(F)F)c3)nc12 [Compound 60]	A (EC1.5<1.0 uM)	A (Fold activation >200%)
COC(=O)c1ccc(NC(=O)c2cccc3ccc(-c4cccc(C(F)(F)F)c4)nc23)o1 [Compound 61]	A (EC1.5<1.0 uM)	A (Fold activation >200%)
O=C(Nc1nccs1)c1cc(F)cc2ccc(-c3cccc(C(F)(F)F)c3)nc12 [Compound 62]	C (EC1.5>25 uM)	–
O=C(Nc1cccnc1)c1cc(F)cc2ccc(-c3cccc(C(F)(F)F)c3)nc12 [Compound 63]	C (EC1.5>25 uM)	–
Cc1cc(-c2ccc3cccc(C(=O)Nc4ccccn4)c3n2)no1 [Compound 64]	C (EC1.5>25 uM)	–
FC(F)(F)Oc1cccc(-c2ccc3cccc(NCc4ccccn4)c3n2)c1 [Compound 65]	C (EC1.5>25 uM)	–
O=C(Nc1nccs1)c1ccc(F)c2ccc(-c3cccc(C(F)(F)F)c3)nc12 [Compound 66]	C (EC1.5>25 uM)	–
O=C(Nc1cccnc1)c1ccc(F)c2ccc(-c3cccc(C(F)(F)F)c3)nc12 [Compound 67]	A (EC1.5<1.0 uM)	A (Fold activation >200%)
Cc1cc(-c2ccc3cccc(C(=O)Nc4cccnc4)c3n2)no1 [Compound 68]	C (EC1.5>25 uM)	–
Cc1cc(-c2ccc3cccc(C(=O)Nc4nccs4)c3n2)no1 [Compound 69]	C (EC1.5>25 uM)	–

SMILES	EC1.5 (concentration of test compound that results in 150% activation of SIRT1)	% Fold Act. (percent maximum fold activation)
Cc1cc(-c2ccc3cccc(C(=O)Nc4ccncn4)c3n2)no1 [Compound 70]	C (EC1.5>25 uM)	–
O=C(NC1CCNCC1)c1cccc2ccc(-c3cccc(C(F)(F)F)c3)nc12 [Compound 71]	B (EC1.5 1-25 uM)	A (Fold activation >200%)
O=C(N[C@H]1CCNC1)c1cccc2ccc(-c3cccc(C(F)(F)F)c3)nc12 [Compound 72]	C (EC1.5>25 uM)	B (Fold Activation <200%)
Cc1cc(NC(=O)c2cccc3ccc(-c4cccc(C(F)(F)F)c4)nc23)no1 [Compound 73]	B (EC1.5 1-25 uM)	B (Fold Activation <200%)
O=C(Nc1cccc2ccc(-c3cccc(F)c3)nc12)c1cscn1 [Compound 74]	B (EC1.5 1-25 uM)	B (Fold Activation <200%)
O=C(Nc1cccc2ccc(-c3ccccc3F)nc12)c1cscn1 [Compound 75]	B (EC1.5 1-25 uM)	A (Fold activation >200%)
O=C(Nc1cccc2ccc(-c3cccnc3)nc12)c1cscn1 [Compound 76]	A (EC1.5<1.0 uM)	A (Fold activation >200%)
O=C(Nc1cccc2ccc(-c3ccncc3)nc12)c1cscn1 [Compound 77]	A (EC1.5<1.0 uM)	A (Fold activation >200%)
O=C(Nc1cccc2ccc(-c3cc(F)cc(F)c3)nc12)c1cscn1 [Compound 78]	C (EC1.5>25 uM)	–
Cc1cccc(-c2ccc3cccc(NC(=O)c4cscn4)c3n2)c1 [Compound 79]	A (EC1.5<1.0 uM)	B (Fold Activation <200%)
N#Cc1cccc(-c2ccc3cccc(NC(=O)c4cscn4)c3n2)c1 [Compound 80]	C (EC1.5>25 uM)	–
CS(=O)(=O)c1cccc(-c2ccc3cccc(NC(=O)c4cscn4)c3n2)c1 [Compound 81]	A (EC1.5<1.0 uM)	A (Fold activation >200%)
Cc1noc(NC(=O)c2cccc3ccc(-c4cccc(C(F)(F)F)c4)nc23)c1C [Compound 82]	B (EC1.5 1-25 uM)	A (Fold activation >200%)
O=C(Nc1nccs1)c1c(F)ccc2ccc(-c3cccc(C(F)(F)F)c3)nc12 [Compound 83]	B (EC1.5 1-25 uM)	A (Fold activation >200%)
O=C(Nc1nccs1)c1cccc2ccc(-c3ccccc3C(F)(F)F)nc12 [Compound 84]	B (EC1.5 1-25 uM)	A (Fold activation >200%)
O=C(Nc1ccccn1)c1cccc2ccc(-c3ccccc3C(F)(F)F)nc12 [Compound 85]	B (EC1.5 1-25 uM)	B (Fold Activation <200%)
